Experimental data: ChEMBL document CHEMBL5696441 (Nat Chem Biol, 2011)

Assays:
[1] = test system: Receptor-type tyrosine-protein kinase FLT3 (Homo sapiens), P36888 [UNDEFINED MUTATION]; assay: Inhibition of FLT3 ITD mutant (unknown origin) assessed as remaining activity at 1 uM by Kinome scan method relative to control
[2] = test system: Epidermal growth factor receptor (Homo sapiens), P00533 [L858R]; assay: Inhibition of human EGFR L858R mutant assessed as residual activity at 1 uM using PolyEY as substrate in presence of 33P-ATP by ProQinase assay relative to control
[3] = molecular target: ALK tyrosine kinase receptor (Homo sapiens) (UniProt Q9UM73); assay: Inhibition of human ALK assessed as residual activity at 1 uM using PolyEY as substrate in presence of 33P-ATP by ProQinase assay relative to control
Chain of ALK tyrosine kinase receptor (Homo sapiens) (Q9UM73 19-1620 limits assumed): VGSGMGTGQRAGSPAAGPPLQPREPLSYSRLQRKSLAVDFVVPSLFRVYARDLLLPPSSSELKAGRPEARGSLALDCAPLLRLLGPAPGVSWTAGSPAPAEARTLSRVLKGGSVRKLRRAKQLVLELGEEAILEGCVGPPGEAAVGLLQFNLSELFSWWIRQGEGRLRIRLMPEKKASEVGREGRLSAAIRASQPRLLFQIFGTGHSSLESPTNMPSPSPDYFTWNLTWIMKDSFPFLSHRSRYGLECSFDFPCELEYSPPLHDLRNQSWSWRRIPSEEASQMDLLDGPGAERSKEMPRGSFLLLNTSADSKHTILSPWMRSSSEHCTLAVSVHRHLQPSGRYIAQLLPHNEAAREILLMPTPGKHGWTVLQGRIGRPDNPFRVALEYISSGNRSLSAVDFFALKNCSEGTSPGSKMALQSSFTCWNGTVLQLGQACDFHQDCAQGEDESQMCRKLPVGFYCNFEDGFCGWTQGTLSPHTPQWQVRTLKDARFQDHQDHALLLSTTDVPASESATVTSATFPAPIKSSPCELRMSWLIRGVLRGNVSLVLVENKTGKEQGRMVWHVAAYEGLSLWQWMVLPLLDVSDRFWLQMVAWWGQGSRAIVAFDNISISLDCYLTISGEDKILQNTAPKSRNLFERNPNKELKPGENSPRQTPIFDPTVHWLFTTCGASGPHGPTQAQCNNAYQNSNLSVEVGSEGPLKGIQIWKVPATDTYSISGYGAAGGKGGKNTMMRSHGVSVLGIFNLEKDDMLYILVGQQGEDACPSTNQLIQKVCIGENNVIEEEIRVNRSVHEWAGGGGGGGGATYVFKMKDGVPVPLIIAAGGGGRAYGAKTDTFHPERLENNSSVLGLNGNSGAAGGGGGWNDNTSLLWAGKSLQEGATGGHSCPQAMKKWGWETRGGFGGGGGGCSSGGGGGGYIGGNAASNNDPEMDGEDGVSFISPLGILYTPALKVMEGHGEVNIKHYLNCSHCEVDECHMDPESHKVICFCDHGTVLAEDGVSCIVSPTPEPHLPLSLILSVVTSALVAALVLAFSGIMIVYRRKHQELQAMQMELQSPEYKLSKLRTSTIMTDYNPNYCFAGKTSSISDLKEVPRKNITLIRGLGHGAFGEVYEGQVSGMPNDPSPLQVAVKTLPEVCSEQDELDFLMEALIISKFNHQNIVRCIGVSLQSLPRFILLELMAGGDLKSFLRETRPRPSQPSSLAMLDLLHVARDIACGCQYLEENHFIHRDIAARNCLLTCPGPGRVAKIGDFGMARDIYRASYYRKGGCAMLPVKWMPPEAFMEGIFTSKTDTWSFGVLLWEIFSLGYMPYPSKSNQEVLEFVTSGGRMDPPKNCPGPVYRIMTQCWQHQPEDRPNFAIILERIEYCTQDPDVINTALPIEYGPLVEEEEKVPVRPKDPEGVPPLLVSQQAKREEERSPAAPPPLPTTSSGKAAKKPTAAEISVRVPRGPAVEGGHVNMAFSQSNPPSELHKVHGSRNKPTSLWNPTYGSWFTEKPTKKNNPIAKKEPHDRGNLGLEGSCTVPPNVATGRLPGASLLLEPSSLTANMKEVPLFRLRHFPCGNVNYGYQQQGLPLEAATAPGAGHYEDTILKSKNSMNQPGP

[4] = molecular target: Calcium/calmodulin-dependent protein kinase type II subunit beta (Homo sapiens) (UniProt Q13554); assay: Inhibition of human CAMK2B assessed as residual activity at 1 uM using RBER-CHKtide as substrate in presence of 33P-ATP by ProQinase assay relative to control
Chain of Calcium/calmodulin-dependent protein kinase type II subunit beta (Homo sapiens) (Q13554 whole entry): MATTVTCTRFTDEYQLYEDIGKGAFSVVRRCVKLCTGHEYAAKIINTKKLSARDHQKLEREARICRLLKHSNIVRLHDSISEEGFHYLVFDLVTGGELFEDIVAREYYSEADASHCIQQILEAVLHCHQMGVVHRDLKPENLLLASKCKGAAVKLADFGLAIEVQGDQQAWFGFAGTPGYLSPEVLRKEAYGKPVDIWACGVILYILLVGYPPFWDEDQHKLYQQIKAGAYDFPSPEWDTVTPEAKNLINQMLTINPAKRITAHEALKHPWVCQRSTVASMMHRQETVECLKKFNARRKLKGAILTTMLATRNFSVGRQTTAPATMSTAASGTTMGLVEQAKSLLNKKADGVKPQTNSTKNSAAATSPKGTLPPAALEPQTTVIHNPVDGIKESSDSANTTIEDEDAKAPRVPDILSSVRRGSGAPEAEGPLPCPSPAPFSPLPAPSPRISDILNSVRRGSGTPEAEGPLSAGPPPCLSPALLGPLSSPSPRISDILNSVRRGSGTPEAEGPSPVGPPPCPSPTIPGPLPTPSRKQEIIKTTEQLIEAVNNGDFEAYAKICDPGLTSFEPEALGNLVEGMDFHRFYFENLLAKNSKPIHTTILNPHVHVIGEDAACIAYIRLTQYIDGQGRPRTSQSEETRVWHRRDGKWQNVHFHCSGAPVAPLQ

[5] = Anti-inflammatory activity against human derived medium respond PBMC cells assessed as inhibition in stimulated IL-1ra cytokine release incubated for 2 hrs in the presence of LPS/SEB/aCD28 by Luminex based sandwich immunoassay; format: functional, cell-based
[6] = molecular target: T1, Mitogen-activated protein kinase kinase kinase kinase 2 (Homo sapiens) (UniProt Q12851); assay: Inhibition of human MAP4K2 assessed as residual activity at 1 uM using 3xChocktide-PKC as substrate in presence of 33P-ATP by ProQinase assay relative to control
T1 sequence (whole entry): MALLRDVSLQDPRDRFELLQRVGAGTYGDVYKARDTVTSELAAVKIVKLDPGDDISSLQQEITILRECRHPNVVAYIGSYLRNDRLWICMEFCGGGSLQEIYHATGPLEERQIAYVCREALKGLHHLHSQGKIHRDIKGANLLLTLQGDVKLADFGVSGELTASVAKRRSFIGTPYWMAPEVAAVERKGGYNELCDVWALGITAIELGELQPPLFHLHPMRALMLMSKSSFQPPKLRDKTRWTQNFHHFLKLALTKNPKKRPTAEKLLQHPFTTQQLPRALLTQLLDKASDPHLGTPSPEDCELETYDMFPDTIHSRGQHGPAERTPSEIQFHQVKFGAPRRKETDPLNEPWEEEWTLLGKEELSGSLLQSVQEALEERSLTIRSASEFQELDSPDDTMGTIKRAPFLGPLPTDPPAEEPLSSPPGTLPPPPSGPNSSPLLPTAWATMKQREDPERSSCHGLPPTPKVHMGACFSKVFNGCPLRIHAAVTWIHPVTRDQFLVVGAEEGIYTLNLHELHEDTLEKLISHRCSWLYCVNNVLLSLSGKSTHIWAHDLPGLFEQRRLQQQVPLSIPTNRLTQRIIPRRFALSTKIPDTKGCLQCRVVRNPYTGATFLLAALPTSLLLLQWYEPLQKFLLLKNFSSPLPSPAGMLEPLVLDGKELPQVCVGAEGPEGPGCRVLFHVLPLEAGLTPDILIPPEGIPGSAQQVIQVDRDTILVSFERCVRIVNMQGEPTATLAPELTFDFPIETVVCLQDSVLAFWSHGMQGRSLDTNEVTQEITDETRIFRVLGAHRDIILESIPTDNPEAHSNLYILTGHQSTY

[7] = molecular target: T2, Serine/threonine-protein kinase D3 (Homo sapiens) (UniProt O94806); assay: Inhibition of human PKCnu assessed as residual activity at 1 uM using bio-4xCHKT as substrate in presence of 33P-ATP by ProQinase assay relative to control
T2 sequence (whole entry): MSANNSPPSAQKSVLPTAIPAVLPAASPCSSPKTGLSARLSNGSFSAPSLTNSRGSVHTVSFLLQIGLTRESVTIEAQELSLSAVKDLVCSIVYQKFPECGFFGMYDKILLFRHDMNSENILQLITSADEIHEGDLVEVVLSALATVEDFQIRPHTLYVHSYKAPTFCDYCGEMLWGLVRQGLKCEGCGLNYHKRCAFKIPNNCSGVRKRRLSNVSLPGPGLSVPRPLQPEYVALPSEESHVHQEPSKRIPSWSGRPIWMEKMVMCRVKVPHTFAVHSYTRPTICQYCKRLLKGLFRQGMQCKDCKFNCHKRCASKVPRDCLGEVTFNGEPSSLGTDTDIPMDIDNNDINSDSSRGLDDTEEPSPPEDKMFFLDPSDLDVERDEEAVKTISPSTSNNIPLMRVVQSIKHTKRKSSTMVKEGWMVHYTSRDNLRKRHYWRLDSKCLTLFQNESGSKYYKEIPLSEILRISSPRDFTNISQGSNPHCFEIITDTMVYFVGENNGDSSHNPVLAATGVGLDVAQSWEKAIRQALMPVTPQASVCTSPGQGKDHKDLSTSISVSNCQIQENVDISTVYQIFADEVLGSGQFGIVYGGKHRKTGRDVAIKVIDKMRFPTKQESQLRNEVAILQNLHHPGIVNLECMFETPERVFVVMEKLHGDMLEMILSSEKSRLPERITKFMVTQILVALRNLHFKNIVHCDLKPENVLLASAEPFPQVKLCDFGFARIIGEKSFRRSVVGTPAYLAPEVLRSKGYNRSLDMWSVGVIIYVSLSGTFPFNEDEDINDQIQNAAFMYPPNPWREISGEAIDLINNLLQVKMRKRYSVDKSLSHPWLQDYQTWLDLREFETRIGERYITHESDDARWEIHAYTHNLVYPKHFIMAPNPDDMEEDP

[8] = test system: Epidermal growth factor receptor (Homo sapiens), P00533 [L858R,T790M]; assay: Inhibition of human EGFR T790M/L858R mutant assessed as residual activity at 1 uM using PolyEY as substrate in presence of 33P-ATP by ProQinase assay relative to control
[9] = molecular target: Tyrosine-protein kinase CSK (Homo sapiens) (UniProt P41240); assay: Inhibition of human CSK assessed as residual activity at 1 uM using polyEY as substrate in presence of 33P-ATP by ProQinase assay relative to control
[10] = molecular target: Mitogen-activated protein kinase kinase kinase 11 (Homo sapiens) (UniProt Q16584); assay: Inhibition of human MAP3K11 assessed as residual activity at 1 uM using MBP as substrate in presence of 33P-ATP by ProQinase assay relative to control
Chain of Mitogen-activated protein kinase kinase kinase 11 (Homo sapiens) (Q16584 whole entry, looked up): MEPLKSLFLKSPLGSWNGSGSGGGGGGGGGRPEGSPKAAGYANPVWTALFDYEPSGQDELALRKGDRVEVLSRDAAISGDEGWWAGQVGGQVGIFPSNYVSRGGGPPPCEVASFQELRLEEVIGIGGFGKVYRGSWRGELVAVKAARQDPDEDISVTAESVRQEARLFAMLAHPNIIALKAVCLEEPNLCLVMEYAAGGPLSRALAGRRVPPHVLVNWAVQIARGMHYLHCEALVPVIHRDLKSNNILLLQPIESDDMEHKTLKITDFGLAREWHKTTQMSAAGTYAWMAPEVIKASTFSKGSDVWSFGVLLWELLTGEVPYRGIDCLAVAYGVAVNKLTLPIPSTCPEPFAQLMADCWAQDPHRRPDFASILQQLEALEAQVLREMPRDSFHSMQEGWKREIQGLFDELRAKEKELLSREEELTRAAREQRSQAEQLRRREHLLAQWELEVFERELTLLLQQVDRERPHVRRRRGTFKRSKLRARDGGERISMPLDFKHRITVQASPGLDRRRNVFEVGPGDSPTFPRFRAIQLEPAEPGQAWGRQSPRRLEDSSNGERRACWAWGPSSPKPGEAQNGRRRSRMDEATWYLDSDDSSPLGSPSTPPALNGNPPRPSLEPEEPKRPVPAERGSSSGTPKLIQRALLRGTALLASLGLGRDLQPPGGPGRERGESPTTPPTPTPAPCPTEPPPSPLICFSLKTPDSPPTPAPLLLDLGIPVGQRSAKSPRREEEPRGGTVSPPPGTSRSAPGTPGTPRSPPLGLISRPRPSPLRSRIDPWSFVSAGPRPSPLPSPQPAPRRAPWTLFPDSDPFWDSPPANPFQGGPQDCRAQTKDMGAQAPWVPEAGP

[11] = molecular target: Serine/threonine-protein kinase PLK3 (Homo sapiens) (UniProt Q9H4B4); assay: Inhibition of human PLK3 assessed as residual activity at 1 uM using casein as substrate in presence of 33P-ATP by ProQinase assay relative to control
Chain of Serine/threonine-protein kinase PLK3 (Homo sapiens) (Q9H4B4 whole entry, looked up): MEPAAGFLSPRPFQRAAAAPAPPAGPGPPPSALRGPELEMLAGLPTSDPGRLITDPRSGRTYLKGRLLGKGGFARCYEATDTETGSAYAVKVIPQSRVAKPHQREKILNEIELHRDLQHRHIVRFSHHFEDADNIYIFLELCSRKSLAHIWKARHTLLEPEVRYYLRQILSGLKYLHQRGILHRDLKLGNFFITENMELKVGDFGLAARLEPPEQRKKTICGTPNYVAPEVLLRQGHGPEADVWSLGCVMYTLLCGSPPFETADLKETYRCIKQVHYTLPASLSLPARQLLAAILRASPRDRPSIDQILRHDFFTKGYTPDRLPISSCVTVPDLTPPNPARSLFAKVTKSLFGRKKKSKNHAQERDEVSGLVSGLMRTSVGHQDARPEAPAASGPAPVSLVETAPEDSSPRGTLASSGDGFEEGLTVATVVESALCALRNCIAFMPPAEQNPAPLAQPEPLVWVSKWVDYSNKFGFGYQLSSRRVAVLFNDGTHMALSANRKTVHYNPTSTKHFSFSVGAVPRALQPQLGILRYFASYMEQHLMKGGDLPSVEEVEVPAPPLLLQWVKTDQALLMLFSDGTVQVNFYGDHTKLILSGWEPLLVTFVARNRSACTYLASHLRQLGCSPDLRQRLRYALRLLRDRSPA

[12] = test system: Proto-oncogene tyrosine-protein kinase receptor Ret (Homo sapiens), P07949 [V804L]; assay: Inhibition of RET V804L (unknown origin) assessed as remaining activity at 1 uM by Kinome scan method relative to control

Chain of Receptor-type tyrosine-protein kinase FLT3 (Homo sapiens), P36888 [UNDEFINED MUTATION] (P36888 whole entry, looked up, stated change not applied): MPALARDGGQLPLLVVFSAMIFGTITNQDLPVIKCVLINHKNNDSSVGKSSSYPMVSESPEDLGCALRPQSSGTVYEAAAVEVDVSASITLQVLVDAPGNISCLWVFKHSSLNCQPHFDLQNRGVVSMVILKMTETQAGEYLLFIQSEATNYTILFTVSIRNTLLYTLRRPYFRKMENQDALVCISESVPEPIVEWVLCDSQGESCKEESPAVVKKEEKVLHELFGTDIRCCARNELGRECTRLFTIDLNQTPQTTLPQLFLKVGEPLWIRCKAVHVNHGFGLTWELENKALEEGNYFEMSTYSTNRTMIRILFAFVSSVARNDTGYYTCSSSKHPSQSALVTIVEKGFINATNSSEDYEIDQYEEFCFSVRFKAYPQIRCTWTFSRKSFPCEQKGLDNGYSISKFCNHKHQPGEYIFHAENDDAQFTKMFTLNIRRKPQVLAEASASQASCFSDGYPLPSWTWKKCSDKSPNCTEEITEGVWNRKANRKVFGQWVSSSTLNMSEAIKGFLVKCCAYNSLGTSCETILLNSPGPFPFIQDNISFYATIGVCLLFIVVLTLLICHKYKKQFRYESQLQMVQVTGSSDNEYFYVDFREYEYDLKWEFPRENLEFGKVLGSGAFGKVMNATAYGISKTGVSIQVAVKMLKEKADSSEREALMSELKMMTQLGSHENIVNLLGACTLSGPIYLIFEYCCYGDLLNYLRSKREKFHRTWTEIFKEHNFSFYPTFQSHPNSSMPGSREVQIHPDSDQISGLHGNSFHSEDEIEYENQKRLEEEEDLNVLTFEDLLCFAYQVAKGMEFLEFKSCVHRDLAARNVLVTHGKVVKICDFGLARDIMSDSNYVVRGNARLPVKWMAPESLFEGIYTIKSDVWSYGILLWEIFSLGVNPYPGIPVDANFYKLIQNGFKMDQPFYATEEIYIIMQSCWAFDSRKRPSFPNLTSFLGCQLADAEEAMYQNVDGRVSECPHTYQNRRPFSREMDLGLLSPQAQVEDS

O=C1c2ccc(Nc3ccc(F)cc3F)cc2CCc2ccc(OC[C@H](O)CO)cc21 [Skepinone-L]
Activity [1]: 96%
Activity [2]: 89%
Activity [3]: 104%
Activity [4]: 86%
IC50 [5]: 870 nM
Activity [6]: 89%
Activity [7]: 92%
Activity [8]: 93%
Activity [9]: 111%
Activity [10]: 114%
Activity [11]: 99%
Activity [12]: 100%
